Calls of active or inactive are those of the source.
Tests used:
[1] = biological target: T1, Ubiquitin-conjugating enzyme E2 N (Homo sapiens, UniProt P61088); format: functional
T1 sequence (P61088 whole entry): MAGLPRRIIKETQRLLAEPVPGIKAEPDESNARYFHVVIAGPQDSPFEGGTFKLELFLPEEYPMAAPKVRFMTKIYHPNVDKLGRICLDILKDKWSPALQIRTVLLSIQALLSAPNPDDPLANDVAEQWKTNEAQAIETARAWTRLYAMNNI

[2] = biological target: T1, Ubiquitin-conjugating enzyme E2 N; format: functional; remark: listed apart in the source
[3] = biological target: T2, Rac GTPase-activating protein 1 (Homo sapiens, UniProt Q9H0H5); test: MgcRacGAP GTPase-activating activity inhibitors, confirmation, biochemical, ADP Hunter fluorescence, primary and confirmatory (AID 624330); format: functional
T2 sequence (Q9H0H5 whole entry): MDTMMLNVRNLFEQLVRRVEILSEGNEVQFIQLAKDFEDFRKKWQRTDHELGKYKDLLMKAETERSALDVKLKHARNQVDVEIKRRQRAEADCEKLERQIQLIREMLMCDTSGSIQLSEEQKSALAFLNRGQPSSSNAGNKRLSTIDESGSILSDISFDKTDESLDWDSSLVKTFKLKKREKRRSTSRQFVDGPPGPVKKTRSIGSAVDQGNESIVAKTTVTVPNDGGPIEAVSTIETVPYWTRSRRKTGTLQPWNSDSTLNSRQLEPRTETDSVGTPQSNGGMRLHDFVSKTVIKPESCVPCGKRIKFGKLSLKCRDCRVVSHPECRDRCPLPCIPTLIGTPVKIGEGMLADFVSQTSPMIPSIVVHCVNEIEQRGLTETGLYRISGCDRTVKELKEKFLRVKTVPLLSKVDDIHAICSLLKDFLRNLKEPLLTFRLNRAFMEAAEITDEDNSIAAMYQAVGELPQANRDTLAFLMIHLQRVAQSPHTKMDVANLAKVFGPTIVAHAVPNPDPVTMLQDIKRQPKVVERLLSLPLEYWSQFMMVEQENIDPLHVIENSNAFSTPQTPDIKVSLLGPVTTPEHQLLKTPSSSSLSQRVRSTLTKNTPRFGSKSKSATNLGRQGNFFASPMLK

Bcl-2-related protein A1 = biological target: T3, Bcl-2-related protein A1 (Mus musculus, UniProt Q07440); format: functional;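 note: confirmatory dose–response counterscreen on Bfl-1, used to check hits from a UBC13 polyubiquitin inhibitor campaign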
T3 sequence (Q07440 whole entry): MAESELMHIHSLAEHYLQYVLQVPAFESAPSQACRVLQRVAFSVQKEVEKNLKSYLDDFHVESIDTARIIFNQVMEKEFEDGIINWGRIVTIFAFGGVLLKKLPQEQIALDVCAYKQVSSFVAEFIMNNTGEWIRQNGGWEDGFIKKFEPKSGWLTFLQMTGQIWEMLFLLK

[4] = biological target: Eukaryotic translation initiation factor 4E (Mus musculus, UniProt P63073); test: eIF4E–eIF4G protein interaction inhibitors, dose response, biochemical, TR-FRET (AID 855); format: functional;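 note: potency for disrupting eIF4E binding to eIF4GI seen as loss of FRET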
Eukaryotic translation initiation factor 4E, sequence (P63073 whole entry): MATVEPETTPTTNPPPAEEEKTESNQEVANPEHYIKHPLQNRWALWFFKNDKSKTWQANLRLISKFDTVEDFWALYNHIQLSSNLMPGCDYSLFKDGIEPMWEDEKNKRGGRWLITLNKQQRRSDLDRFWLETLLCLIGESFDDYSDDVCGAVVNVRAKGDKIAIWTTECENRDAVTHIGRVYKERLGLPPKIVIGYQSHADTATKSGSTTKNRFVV

[5] = Vero E6 cell cytotoxicity, dose response, cytotoxicity control for non-replicating M. tuberculosis project, secondary assay (AID 492998); format: functional, VeroE6; details: Vero C1008
[6] = THP-1 cell cytotoxicity, dose response, cytotoxicity control for non-replicating M. tuberculosis project (AID 489025); format: functional
[7] = test system: Streptococcus sp. 'group A'; test: growth inhibition of control SK(-) GAS strain, dose response, counter-screen for streptokinase expression inhibitor project, luminescence, kanamycin, BacTiterGlo, confirmation (AID 1900); format: functional, organism-based
Streptococcus = test: Group A Streptococcus viability loss, dose response, counter-screen for streptokinase expression inhibitor project, luminescence, BacTiterGlo (AID 1915); format: functional, organism-based;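 note: potency for reduction of bacterial viability or growth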
cells = format: functional
Escherichia coli = test: microbe, parasite or virus in culture
[8] = cytotoxicity toward NIH3T3 fibroblasts, dose response, counter-screen, cell-based, ATP luminescence, mouse fibroblasts (AID 2010); format: functional;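 note: cells exposed to compound for about 90 hours before reading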
[9] = inhibitors of intracellular T. cruzi replication, confirmation, NIH3T3 host cells, beta-gal luminescence (AID 2044); format: functional, cell-based;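 note: intracellular parasites grown in NIH/3T3 mouse fibroblasts as host cells; luminescent beta-galactosidase reporter signal from transgenic T. cruzi replicating inside host cells; inhibitors lower the luminescence signal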
Cytochrome P450 2C9 = Cytochrome P450 2C9 (Homo sapiens, UniProt P11712)
Cytochrome P450 2C9, sequence (P11712 whole entry): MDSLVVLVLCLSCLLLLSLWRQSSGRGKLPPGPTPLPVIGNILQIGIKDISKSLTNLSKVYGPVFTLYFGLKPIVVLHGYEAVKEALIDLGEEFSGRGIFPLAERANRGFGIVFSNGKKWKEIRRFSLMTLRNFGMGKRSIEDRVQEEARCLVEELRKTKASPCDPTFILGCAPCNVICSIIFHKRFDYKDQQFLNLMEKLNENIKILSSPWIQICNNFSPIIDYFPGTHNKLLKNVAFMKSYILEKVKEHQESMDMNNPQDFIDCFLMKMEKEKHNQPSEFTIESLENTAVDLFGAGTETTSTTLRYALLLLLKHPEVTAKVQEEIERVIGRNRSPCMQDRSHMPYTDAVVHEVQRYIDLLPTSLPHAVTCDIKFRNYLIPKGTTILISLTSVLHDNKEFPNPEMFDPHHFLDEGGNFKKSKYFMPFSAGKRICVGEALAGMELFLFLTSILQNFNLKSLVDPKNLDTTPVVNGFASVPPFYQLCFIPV

[10] = biological target: Peroxisome proliferator-activated receptor gamma/Nuclear receptor coactivator 2 (Homo sapiens, UniProt P37231); format: functional;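 note: agonist potency for raising coactivator recruitment to the receptor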
Peroxisome proliferator-activated receptor gamma/Nuclear receptor coactivator 2, sequence (P37231 whole entry): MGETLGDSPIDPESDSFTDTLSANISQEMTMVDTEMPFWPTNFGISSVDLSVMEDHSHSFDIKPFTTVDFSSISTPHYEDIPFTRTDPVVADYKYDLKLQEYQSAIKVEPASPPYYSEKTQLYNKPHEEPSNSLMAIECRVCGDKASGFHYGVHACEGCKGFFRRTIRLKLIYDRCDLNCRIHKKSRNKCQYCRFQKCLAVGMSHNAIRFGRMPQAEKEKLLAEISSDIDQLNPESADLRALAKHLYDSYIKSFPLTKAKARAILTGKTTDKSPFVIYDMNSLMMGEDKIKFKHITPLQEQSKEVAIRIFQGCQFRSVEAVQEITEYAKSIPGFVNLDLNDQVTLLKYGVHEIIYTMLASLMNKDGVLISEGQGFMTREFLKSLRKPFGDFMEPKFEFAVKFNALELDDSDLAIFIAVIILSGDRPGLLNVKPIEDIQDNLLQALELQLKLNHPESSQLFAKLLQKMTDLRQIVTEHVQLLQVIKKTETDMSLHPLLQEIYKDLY
Peroxisome proliferator-activated receptor gamma/Nuclear receptor coactivator 2, sequence (Q15596 whole entry, further chain): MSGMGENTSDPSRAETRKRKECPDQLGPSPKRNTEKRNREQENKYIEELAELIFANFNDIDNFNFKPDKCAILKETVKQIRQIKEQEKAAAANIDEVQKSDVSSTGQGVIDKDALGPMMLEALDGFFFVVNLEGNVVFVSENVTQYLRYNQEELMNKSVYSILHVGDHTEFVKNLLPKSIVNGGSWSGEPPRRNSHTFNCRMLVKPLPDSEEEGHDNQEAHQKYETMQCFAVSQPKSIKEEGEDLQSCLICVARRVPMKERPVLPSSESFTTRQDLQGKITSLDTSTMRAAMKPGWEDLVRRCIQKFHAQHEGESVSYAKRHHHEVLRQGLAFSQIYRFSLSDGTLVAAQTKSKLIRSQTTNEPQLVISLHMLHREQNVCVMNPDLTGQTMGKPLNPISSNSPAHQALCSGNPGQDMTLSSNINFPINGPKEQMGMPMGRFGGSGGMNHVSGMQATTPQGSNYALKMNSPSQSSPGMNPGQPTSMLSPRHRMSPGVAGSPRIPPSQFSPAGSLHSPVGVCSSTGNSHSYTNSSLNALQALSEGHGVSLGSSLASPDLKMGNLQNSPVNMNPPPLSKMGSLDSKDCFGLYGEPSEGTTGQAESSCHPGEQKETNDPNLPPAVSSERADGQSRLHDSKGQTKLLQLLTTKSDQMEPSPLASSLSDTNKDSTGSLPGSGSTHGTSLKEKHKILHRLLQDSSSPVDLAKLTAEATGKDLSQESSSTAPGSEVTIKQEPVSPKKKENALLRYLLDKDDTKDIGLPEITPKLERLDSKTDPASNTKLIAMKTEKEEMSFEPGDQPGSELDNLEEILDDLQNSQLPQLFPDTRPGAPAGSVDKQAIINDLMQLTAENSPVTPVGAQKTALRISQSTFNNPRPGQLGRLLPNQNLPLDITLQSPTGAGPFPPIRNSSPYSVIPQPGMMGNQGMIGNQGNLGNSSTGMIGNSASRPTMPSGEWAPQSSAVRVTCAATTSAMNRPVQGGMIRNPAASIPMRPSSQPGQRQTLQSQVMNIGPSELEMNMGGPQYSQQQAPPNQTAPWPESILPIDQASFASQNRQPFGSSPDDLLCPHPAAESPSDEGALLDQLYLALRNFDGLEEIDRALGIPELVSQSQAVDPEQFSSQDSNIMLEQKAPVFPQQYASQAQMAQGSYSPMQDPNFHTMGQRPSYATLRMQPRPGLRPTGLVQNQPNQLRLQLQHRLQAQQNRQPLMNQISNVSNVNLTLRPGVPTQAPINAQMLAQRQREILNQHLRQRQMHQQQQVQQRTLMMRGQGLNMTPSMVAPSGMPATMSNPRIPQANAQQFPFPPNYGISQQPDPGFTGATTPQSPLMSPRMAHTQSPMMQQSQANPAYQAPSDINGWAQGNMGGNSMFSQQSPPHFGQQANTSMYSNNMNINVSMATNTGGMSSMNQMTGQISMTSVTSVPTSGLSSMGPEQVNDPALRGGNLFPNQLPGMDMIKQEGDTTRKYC

HeLa = test: HeLa cell cytotoxicity, dose response, cytotoxicity control for MITF activator project, CellTiter-Glo luminescence, cherry-pick samples (AID 540259); format: functional, cell-based; details: Homo sapiens
[11] = biological target: Peroxisome proliferator-activated receptor gamma/Nuclear receptor coactivator 1 (Homo sapiens, UniProt P37231); format: functional;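 note: agonist potency as compounds enhance coactivator SRC-1 recruitment to PPARgamma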
Peroxisome proliferator-activated receptor gamma/Nuclear receptor coactivator 1, sequence (P37231 whole entry): as the sequence (P37231 whole entry) above
Peroxisome proliferator-activated receptor gamma/Nuclear receptor coactivator 1, sequence (Q15788 whole entry, further chain): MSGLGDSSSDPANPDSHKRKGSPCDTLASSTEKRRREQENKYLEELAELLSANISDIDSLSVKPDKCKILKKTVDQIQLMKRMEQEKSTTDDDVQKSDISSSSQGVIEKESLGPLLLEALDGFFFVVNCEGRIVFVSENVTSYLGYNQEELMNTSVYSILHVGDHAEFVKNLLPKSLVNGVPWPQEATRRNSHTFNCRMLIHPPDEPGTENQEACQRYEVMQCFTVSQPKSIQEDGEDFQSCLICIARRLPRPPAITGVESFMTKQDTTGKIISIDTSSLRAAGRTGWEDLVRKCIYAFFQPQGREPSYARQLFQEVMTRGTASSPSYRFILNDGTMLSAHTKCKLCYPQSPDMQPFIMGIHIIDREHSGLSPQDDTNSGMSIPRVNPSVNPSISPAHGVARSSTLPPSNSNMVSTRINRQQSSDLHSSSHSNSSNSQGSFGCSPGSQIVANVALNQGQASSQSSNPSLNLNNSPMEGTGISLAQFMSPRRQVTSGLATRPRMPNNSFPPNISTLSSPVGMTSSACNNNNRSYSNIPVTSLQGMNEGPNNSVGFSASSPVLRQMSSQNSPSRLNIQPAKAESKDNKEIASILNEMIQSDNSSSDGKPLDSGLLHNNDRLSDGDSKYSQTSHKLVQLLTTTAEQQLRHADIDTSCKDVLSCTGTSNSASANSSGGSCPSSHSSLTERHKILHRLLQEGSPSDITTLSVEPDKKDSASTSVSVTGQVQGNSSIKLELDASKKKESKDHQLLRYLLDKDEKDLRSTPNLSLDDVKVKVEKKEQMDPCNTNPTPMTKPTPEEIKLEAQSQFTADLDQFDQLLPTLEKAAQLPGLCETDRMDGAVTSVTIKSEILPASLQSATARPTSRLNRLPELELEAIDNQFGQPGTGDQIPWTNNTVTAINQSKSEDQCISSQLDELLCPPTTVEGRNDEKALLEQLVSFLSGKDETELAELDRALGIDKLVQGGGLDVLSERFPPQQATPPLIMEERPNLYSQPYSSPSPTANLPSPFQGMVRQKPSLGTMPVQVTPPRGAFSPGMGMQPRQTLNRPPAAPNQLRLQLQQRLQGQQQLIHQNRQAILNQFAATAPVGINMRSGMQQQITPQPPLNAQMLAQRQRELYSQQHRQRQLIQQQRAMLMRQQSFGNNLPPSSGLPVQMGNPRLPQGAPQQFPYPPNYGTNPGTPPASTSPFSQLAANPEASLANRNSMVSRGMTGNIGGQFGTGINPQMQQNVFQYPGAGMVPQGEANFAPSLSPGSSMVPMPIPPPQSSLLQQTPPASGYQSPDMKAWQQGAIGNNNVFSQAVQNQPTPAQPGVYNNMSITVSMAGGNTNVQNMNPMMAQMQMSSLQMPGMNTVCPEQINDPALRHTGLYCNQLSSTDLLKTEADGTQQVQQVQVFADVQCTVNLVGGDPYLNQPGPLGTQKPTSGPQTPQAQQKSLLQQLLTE

[12] = biological target: Peroxisome proliferator-activated receptor gamma/Nuclear receptor coactivator 3 (Homo sapiens, UniProt P37231); format: functional;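 note: agonist potency for raising coactivator recruitment to the receptor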
Nonstructural protein 1 = Nonstructural protein 1 (Influenza A virus, UniProt Q194T2); format: functional, Influenza A virus (A/California/07/2009(H1N1))
Nonstructural protein 1, sequence (Q194T2 whole entry): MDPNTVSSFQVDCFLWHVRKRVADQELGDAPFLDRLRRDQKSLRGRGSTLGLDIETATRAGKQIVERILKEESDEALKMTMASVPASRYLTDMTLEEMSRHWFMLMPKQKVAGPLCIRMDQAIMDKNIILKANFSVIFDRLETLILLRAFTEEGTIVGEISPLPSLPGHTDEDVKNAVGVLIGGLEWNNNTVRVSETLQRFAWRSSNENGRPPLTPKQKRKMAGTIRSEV

Q: Which IC50 [1] does the source give for `C#CCOCCOCCOCCNc1nc(N2CCN(C(=O)[C@H](CCCCN)n3cc(CN)nn3)CC2)nc(N2CCN(C(=O)[C@H](CCCCN)n3cc(CN)nn3)CC2)n1` here?
A: 5.15 µM (active)

Q: And the IC50 [2]?
A: 5.36 µM (active)

Q: What about the IC50 [3] of the same compound?
A: 203 µM (active)

Q: What about the IC50 (Bcl-2-related protein A1) of the same compound?
A: > 20 µM (inactive)

Q: Which IC50 [4] does the source give for `CCCCCC(=O)NC(N=C(S)NC1CCS(=O)(=O)C1)C(Cl)(Cl)Cl` (configuration not stated) here?
A: > 64 µM (inactive)

Q: For `Cc1cc(Nc2ccccc2)n(-c2nc3ccccc3[nH]2)n1`, which CC50 [5] is on record?
A: 18.8 µM (active)

Q: What about the CC50 [6] of the same compound?
A: 38 µM (active)

Q: What about the EC50 [7] of the same compound?
A: 2.16 µM (active)

Q: What about the EC50 (Streptococcus) of the same compound?
A: 5.5 µM (active)

Q: And the IC50 (cells)?
A: 1.07 µM (active)

Q: With `CN(C)c1nc(SCC#N)nc(N2CCOCC2)n1` as the compound, how does the AC50 (Escherichia coli) read?
A: 66.1 µM (active)

Q: With `Cc1cc(C)c2sc(N(CCCN(C)C)C(=O)c3ccc(S(=O)(=O)N(C)C4CCCCC4)cc3)nc2c1` as the compound, how does the IC50 [1] read?
A: 10 µM (active)

Q: And the EC50 [8]?
A: > 30 µM (not active)

Q: And the IC50 [2]?
A: 10.6 µM (active)

Q: And the IC50 (Bcl-2-related protein A1)?
A: > 20 µM (inactive)

Q: What about the EC50 [9] of the same compound?
A: 0.385 µM (active)

Q: Which IC50 [4] does the source give for `Cc1ccccc1NC(=O)Cn1nnc2c(cnn2-c2ccc(F)cc2)c1=O` here?
A: > 64 µM (inactive)

Q: Which IC50 [1] does the source give for `Cc1nc2ccccc2n1C1CCN(CC(=O)Nc2ccccc2Br)CC1` [ASN06356088] here?
A: > 20 µM (inactive)

Q: What about the IC50 [2] of the same compound?
A: 16.4 µM (active)

Q: What about the IC50 (Bcl-2-related protein A1) of the same compound?
A: > 20 µM (inactive)

Q: With `O=C(CSc1nnc(CNc2ccccc2)o1)N1CCc2ccccc21` as the compound, how does the IC50 [4] read?
A: > 64 µM (inactive)

Q: What does the source list for `CC(C)(C)c1ccc(-c2nc(C#N)c(NCCCn3ccnc3)o2)cc1`?
A: CC50 [5]: > 20 µM (active); IC50 (cells): 25.4 µM (active)

Q: Which results are given for `O=C(Nc1ccc(N2CCCCC2)cc1)c1cncc(Br)c1`?
A: AC50 (Cytochrome P450 2C9): 14.1 µM (inconclusive); EC50 [10]: > 79.4 µM (not active); AC50 (HeLa): 50.2 µM (active); EC50 [11]: > 79.4 µM (not active); EC50 [12]: > 79.4 µM (not active)

Q: With `CN1CCC(O)(c2cccs2)C(C(=O)c2cccs2)C1` (configuration not stated) as the compound, how does the CC50 [5] read?
A: > 20 µM (active)

Q: What about the IC50 (cells) of the same compound?
A: 15.4 µM (active)

Q: Which IC50 (Nonstructural protein 1) does the source give for `Cc1ccc2c(c1)C1CN(C)CCC1N2S(=O)(=O)c1ccc(Oc2ccc([N+](=O)[O-])cc2)cc1` (configuration not stated) here?
A: > 100 µM (active)

Q: For `OC1(c2ccccc2Cl)NN=C2CCCCCN21` (configuration not stated), which AC50 (Escherichia coli) is on record?
A: 26 µM (active)
